# Test results as given in patent EP4707277A1, “NOVEL HETEROCYCLIC AMINE DERIVATIVES AND PHARMACEUTICAL COMPOSITION COMPRISING SAME” (Daewoong Pharmaceutical Co., Ltd., priority 2023, dated 2024).
# Where two headings read alike, the source gives them in different places.
# Columns and labels:
# BTK = target: T1, BTK (Homo sapiens, UniProt Q06187); test: Inhibitory activity against BTK, ADP-Glo Kinase system (Promega); format: biochemical
# T1 construct: purchased Signalchem B10-10H
# Method in brief: (§1)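 IC50 values were fitted from kinase reactions run for 1 h at 30°C with either 1 mM ATP or ATP at Km (10 µM for BTK, 25 µM for ITK). Reactions used 0.2 µg/µl poly(Glu4,Tyr1), recombinant human enzyme (BTK 10 ng, ITK 4 ng per reaction) in Tris pH 7.5 Mn/Mg buffer with 1% DMSO. ADP formed was read by ADP-Glo luminescence.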
# ITK = target: T2, ITK (Homo sapiens, UniProt Q08881); test: Inhibitory activity against ITK, ADP-Glo Kinase system (Promega); format: biochemical
# T2 construct: purchased Signalchem I13-11G-10
# T2 sequence (Q08881 1-620): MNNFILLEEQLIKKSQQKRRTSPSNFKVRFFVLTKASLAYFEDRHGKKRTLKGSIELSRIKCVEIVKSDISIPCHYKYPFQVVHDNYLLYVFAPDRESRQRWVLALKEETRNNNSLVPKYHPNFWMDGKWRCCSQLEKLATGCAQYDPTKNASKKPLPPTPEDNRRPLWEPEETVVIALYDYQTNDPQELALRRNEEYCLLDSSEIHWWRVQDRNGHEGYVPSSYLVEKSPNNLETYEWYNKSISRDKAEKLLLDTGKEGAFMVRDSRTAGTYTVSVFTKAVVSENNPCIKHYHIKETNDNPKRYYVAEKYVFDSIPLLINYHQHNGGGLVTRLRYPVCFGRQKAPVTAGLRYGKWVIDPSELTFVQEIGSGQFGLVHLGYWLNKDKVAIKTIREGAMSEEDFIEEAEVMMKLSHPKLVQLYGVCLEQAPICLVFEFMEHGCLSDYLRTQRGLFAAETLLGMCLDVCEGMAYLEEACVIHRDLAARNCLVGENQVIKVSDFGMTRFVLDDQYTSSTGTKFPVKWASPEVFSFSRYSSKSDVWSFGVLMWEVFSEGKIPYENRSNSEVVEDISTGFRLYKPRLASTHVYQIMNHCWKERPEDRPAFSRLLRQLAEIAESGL
# Method in brief: as §1
# [1] = 1mM ATP, read-out: BTK IC50(nM) 1mM ATP
# [2] = 1mM ATP, read-out: ITK IC50(nM) 1mM ATP
# [3] = Km ATP (BTK: 10 uM), read-out: BTK IC50(nM) Km ATP
# [4] = Km ATP (ITK: 25uM), read-out: ITK IC50(nM) Km ATP
# T1 sequence (Q06187 whole entry): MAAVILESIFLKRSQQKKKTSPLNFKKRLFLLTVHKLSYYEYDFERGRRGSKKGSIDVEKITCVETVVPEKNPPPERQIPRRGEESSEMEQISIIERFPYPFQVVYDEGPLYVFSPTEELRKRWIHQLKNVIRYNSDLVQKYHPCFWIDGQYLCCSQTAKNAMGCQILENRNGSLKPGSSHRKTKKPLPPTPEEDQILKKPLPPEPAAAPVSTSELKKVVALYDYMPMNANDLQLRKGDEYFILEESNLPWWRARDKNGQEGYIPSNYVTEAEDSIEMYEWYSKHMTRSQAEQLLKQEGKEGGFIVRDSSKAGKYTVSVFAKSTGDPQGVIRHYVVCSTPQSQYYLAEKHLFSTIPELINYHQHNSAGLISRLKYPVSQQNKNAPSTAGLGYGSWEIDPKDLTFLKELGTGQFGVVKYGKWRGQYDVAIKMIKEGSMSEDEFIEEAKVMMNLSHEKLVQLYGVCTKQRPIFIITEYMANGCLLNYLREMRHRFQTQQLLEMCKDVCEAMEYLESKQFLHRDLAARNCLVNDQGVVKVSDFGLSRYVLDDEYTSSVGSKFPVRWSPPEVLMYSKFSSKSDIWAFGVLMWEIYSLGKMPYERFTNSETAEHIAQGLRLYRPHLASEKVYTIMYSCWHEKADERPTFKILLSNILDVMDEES
Structure (SMILES),IC50 (BTK; [1]),IC50 (ITK; [2]),IC50 (BTK; [3]),IC50 (ITK; [4])
"C=C(F)C(=O)N1CC[C@H](Oc2nc(Nc3ncc(C)s3)cc3c2ccn3CC(C)C)C1 [Example 224, (S)-2-fluoro-1-(3-((1-isobutyl-6-((5-methylthiazol-2-yl)amino)-1H-pyrrolo[3,2-c]pyridin-4-yl)oxy)pyrrolidin-1-yl)prop-2-en-1-one]",> 500 nM,> 500 nM,–,–
"C/C=C/C(=O)N1CC[C@H](Oc2nc(Nc3ncc(C)s3)cc3c2ccn3CC(C)C)C1 [Example 226, (S,E)-1-(3-((1-isobutyl-6-((5-methylthiazol-2-yl)amino)-1H-pyrrolo[3,2-c]pyridin-4-yl)oxy)pyrrolidin-1-yl)but-2-en-1-one]",> 500 nM,> 500 nM,–,–
"C=CC(=O)N1CC[C@@H](Oc2nc(Nc3ncc(C)s3)cc3c2ccn3C)C1 [Example 156, (R)-1-(3-((1-methyl-6-((5-methylthiazol-2-yl)amino)-1H-pyrrolo[3,2-c]pyridin-4-yl)oxy)pyrrolidin-1-yl)prop-2-en-1-one]",> 500 nM,> 500 nM,–,–
"C=CC(=O)N1CC=C(c2nc(Nc3cc(C)ccn3)cc3c2ccn3C(C)C)CC1 [Example 49, 1-(4-(1-isopropyl-6-((4-methylpyridin-2-yl)amino)-1H-pyrrolo[3,2-c]pyridin-4-yl)-3,6-dihydropyridin-1(2H)-yl)prop-2-en-1-one]",100 to 500 nM,100 to 500 nM,20 to 100 nM,20 to 100 nM
"C=CC(=O)N1CC[C@H](Oc2nc(Nc3cc(C)ncn3)cc3c2ccn3C(C)C)C1 [Example 101, (S)-1-(3-((1-isopropyl-6-((6-methylpyrimidin-4-yl)amino)-1H-pyrrolo[3,2-c]pyridin-4-yl)oxy)pyrrolidin-1-yl)prop-2-en-1-one]",≤ 20 nM,20 to 100 nM,–,–
"C=CC(=O)N1CC(F)(F)C[C@@H]1COc1nc(Nc2ncc(C)s2)cc2c1ccn2C(C)C [Example 93, (R)-1-(4,4-difluoro-2-(((1-isopropyl-6-((5-methylthiazol-2-yl)amino)-1H-pyrrolo[3,2-c]pyridin-4-yl)oxy)methyl)pyrrolidin-1-yl)prop-2-en-1-one]",≤ 20 nM,≤ 20 nM,–,–
"C=CC(=O)N1CC[C@@H]1COc1nc(Nc2ncc(C)s2)cc2c1ccn2C1CCCC1 [Example 223, (R)-1-(2-(((1-cyclopentyl-6-((5-methylthiazol-2-yl)amino)-1H-pyrrolo[3,2-c]pyridin-4-yl)oxy)methyl)azetidin-1-yl)prop-2-en-1-one]",≤ 20 nM,≤ 20 nM,–,–

# The next lines start with the values.
IC50 (BTK; [1]),IC50 (ITK; [2]),IC50 (BTK; [3]),IC50 (ITK; [4]),Structure (SMILES)
≤ 20 nM,≤ 20 nM,–,–,"C=CC(=O)N1CC[C@H](Oc2nc(Nc3ncc(C)s3)cc3c2ccn3CC2CC2)C1 [Example 97, (S)-1-(3-((1-(cyclopropylmethyl)-6-((5-methylthiazol-2-yl)amino)-1H-pyrrolo[3,2-c]pyridin-4-yl)oxy)pyrrolidin-1-yl)prop-2-en-1-one]"
≤ 20 nM,≤ 20 nM,–,–,"C=CC(=O)N1CCC[C@H](Oc2nc(Nc3ncc(C)s3)cc3c2ccn3CC2CC2)C1 [Example 149, (S)-1-(3-((1-(cyclopropylmethyl)-6-((5-methylthiazol-2-yl)amino)-1H-pyrrolo[3,2-c]pyridin-4-yl)oxy)piperidin-1-yl)prop-2-en-1-one]"
≤ 20 nM,≤ 20 nM,–,–,"C=CC(=O)N1CC[C@H](Oc2nc(Nc3ncc(C)s3)cc3c2ccn3CC2CCCCC2)C1 [Example 129, (S)-1-(3-((1-(cyclohexylmethyl)-6-((5-methylthiazol-2-yl)amino)-1H-pyrrolo[3,2-c]pyridin-4-yl)oxy)pyrrolidin-1-yl)prop-2-en-1-one]"
–,–,≤ 20 nM,≤ 20 nM,"C=CC(=O)N1CC=C(c2nc(Nc3ncc(C)s3)cc3c2ccn3CC2CCCCC2)CC1 [Example 9, 1-(4-(1-(cyclohexylmethyl)-6-((5-methylthiazol-2-yl)amino)-1H-pyrrolo[3,2-c]pyridin-4-yl)-3,6-dihydropyridin-1(2H)-yl)prop-2-en-1-one]"
